Read-outs that look alike come from different tables or passages of the source.
Legend:
[1] = test system: Aβ40 in conditioned medium of cells stably expressing Amyloid Precursor Protein (APP); assay: In vitro BACE cell-based assay (Aβ40 in conditioned medium, sandwich ELISA);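 note: compounds added as a dilution series, secreted peptide quantified by europium time-resolved fluorescence readout, potency fitted from percent of control versus compound concentration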
[2] = target: Beta Secretase enzyme (BACE) (Homo sapiens, UniProt P56817); assay: In vitro enzymatic BACE FRET (fluorescence resonance energy transfer) assay; type: biochemical;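 note: fluorescence read after 1 h with 50 nM quenched peptide substrate spanning the BACE cleavage site, in pH 4.2 acetate buffer containing 10% DMSO and nonionic detergent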
Chain of Beta Secretase enzyme (BACE) (P56817 46-501): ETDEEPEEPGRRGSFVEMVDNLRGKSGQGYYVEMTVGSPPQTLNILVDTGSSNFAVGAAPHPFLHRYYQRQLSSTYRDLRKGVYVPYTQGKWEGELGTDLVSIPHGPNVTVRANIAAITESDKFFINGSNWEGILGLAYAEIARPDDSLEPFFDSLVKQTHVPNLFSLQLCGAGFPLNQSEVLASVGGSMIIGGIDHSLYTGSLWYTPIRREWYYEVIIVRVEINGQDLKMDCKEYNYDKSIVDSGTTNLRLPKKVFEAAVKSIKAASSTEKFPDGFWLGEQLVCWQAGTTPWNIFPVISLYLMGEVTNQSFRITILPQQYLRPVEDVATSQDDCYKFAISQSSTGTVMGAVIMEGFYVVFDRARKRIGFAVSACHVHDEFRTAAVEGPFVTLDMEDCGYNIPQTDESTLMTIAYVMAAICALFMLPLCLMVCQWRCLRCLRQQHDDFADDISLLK

[3] = Homo sapiens, HEK293, HEK cells, cell-based assay, read-out: HEK cell assay (IC50)
[4] = BACE enzyme assay, read-out: BACE1 FRET assay (IC50)
[5] = BACE enzyme FRET assay, read-out: BACE1 FRET assay (IC50)
[6] = HEK cells, cell-based assay, read-out: HEK cell assay (IC50)
[7] = Homo sapiens, HEK293, Table 1, HEK cells, read-out: HEK cell assay
[8] = Table 1, read-out: BACE1 FRET assay

| Compound | IC50 [1, 3] | IC50 [2, 4] | IC50 [2, 5] | further results |
| --- | --- | --- | --- | --- |
| CO[C@H](C)C(=O)N[C@@H](Cc1cccc(F)c1)[C@H](O)CN[C@H]1CC2(CCC2)Oc2ncc(CC(C)(C)C(F)(F)F)cc21 [compound 74] | 0.0949 µM | 0.0305 µM | – | – |
| COCC(=O)N[C@@H](Cc1ccc(F)cc1)[C@H](O)CN[C@H]1CC2(CCC2)Oc2ncc(CC(C)(F)F)cc21 [compound 271] | 0.1 µM | – | 0.0387 µM | – |
| CC(C)(C)Cc1cnc2c(c1)[C@@H](NC[C@@H](O)[C@H](Cc1cccc(C#N)c1)NC(=O)[C@H](O)C(F)(F)F)CC1(CCC1)O2 [compound 61] | 0.00965 µM | 0.00323 µM | – | – |
| CCOCC(=O)N[C@@H](Cc1ccc(F)cc1)[C@H](O)CN[C@H]1CC2(CCC2)Oc2ncc(CC(C)(C)C)cc21 [compound 655] | – | – | – | IC50 ([1]; Homo sapiens, HEK293, HEK cells, read-out: HEK cell assay (IC50)): 0.043 µM; IC50 ([2]; read-out: BACE1 FRET assay (IC50)): 0.013 µM |
| COC(=O)N[C@@H](Cc1ccc2c(c1)OCO2)[C@H](O)CN[C@H]1CC2(CCC2)Oc2ncc(CC(C)(C)C)cc21 [compound 289] | 0.196 µM | – | 0.0775 µM | – |
| CO[C@H](C)C(=O)N[C@@H](Cc1cccc(F)c1)[C@H](O)CN[C@H]1CC2(CCC2)Oc2ncc(CC(C)(C)F)cc21 [compound 301] | 0.00699 µM | – | 0.00781 µM | – |
| CC(=O)CC(=O)N[C@@H](Cc1ccc2c(c1)OCO2)[C@H](O)CN[C@H]1CC2(CCC2)Oc2ncc(CC(C)(C)C)cc21 [compound 308] | 0.0209 µM | – | 0.0244 µM | – |
| CO[C@H](C)C(=O)N[C@@H](Cc1ccc(F)cc1)[C@H](O)CN[C@H]1CC2(CCC2)Oc2ncc(CC(C)(C)C(F)(F)F)cc21 [compound 75] | 0.0199 µM | 0.00668 µM | – | – |
| CC(=O)N[C@@H](Cc1ccc(F)cc1)[C@H](O)CN[C@H]1CC2(CCC2)Oc2ccc(CC(C)(C)F)cc21 [compound 200] | 0.375 µM | – | 0.206 µM | – |
| COCC(=O)NC(Cc1cccc(F)c1)C(O)CNC1CC2(CC(O)C2)Oc2cnccc21 [compound 235, N-((1S,2R)-1-((3-fluorophenyl)methyl)-2-hydroxy-3-(((1s,3S,4′S)-3-hydroxy-3′,4′-dihydrospiro[cyclobutane-1,2′-pyrano[2,3-c]pyridin]-4′-yl)amino)propyl)-2-(methyloxy)acetamide] | 0.452 µM | – | 0.581 µM | – |
| COCC(=O)N[C@@H](Cc1ccc(F)cc1)[C@H](O)CN[C@H]1CC2(CCC2)Oc2ncc([C@@H](O)C(C)(C)C)cc21 [compound 189] | 1 µM | – | 0.88 µM | – |
| COCCNc1nc(CC(C)(C)C)cc2c1OC1(CCC1)C[C@@H]2NC[C@@H](O)[C@H](Cc1ccc(F)cc1)NC(=O)COC [compound 150] | 0.0226 µM | 0.0479 µM | – | – |
| CO[C@@H](C(=O)N[C@@H](Cc1ccc(F)cc1)[C@H](O)CN[C@H]1CC2(CCC2)Oc2ncc(CC(C)(C)C)cc21)C(F)(F)F [compound 63] | 0.128 µM | 0.258 µM | – | – |
| COCC(=O)N[C@@H](Cc1cccc(F)c1)[C@H](O)CN[C@H]1C[C@]2(C[C@H](O)C2)Oc2ncc(CC(C)(C)C)cc21 [compound 232, N-((1S,2R)-3-(((1s,3S,4′S)-6′-(2,2-dimethylpropyl)-3-hydroxy-3′,4′-dihydrospiro[cyclobutane-1,2′-pyrano[2,3-b]pyridin]-4′-yl)amino)-1-((3-fluorophenyl)methyl)-2-hydroxypropyl)-2-(methyloxy)acetamide] | – | – | 0.00234 µM | IC50 [1, 6]: 0.00327 µM |
| COCC(=O)N[C@@H](Cc1ccc2c(c1)OCO2)[C@H](O)CN[C@H]1CC2(CCC2)Oc2c1cc(CC(C)(C)C)nc2N [compound 129] | 0.0309 µM | 0.119 µM | – | – |
| CO[C@H](C)C(=O)N[C@@H](Cc1ccc(F)cc1)[C@H](O)CN[C@H]1CC2(CCC2)Oc2ncc(CC(C)C)cc21 [compound 333] | – | – | – | IC50 [1, 7]: 0.0479 µM; IC50 [2, 8]: 0.029 µM |
| CC(C)(C)Cc1cnc2c(c1)[C@@H](NC[C@@H](O)[C@H](Cc1ccc3c(c1)OCO3)NC(=O)C(F)(F)Cl)CC1(CCC1)O2 [compound 99] | 0.317 µM | 0.0593 µM | – | – |
| CC(=O)N[C@@H](Cc1ccc(F)cc1)[C@H](O)CN[C@H]1CC2(CCC2)Oc2ncc(C[C@@H](C)C(F)F)cc21 [compound 199] | 0.0591 µM | – | 0.0452 µM | – |
| C=Cc1cccc(C[C@H](NC(=O)COC)[C@H](O)CN[C@H]2CC3(CCC3)Oc3ncc(CC(C)C)cc32)c1 [compound 832] | – | – | – | IC50 ([1]; Homo sapiens, HEK293, HEK cell-based assay, IC50's in uM, read-out: HEK cell assay): 0.038 µM; IC50 ([2]; BACE enzyme assay, IC50's in uM, read-out: BACE1 FRET assay): 0.007 µM |
| CO[C@H](C)C(=O)N[C@@H](Cc1ccc2c(c1)OCO2)[C@H](O)CN[C@H]1CC2(CCC2)Oc2ncc(C[C@H](C)C(F)(F)F)cc21 [compound 340] | – | – | – | IC50 [1, 7]: 0.0906 µM; IC50 [2, 8]: 0.148 µM |

| Compound | IC50 [1, 3] | IC50 [2, 4] | IC50 [2, 5] | further results |
| --- | --- | --- | --- | --- |
| COCC(=O)NC(Cc1ccc2c(c1)OCO2)C(O)CNC1CC2(CC(F)C2)Oc2ncc(CC(C)(C)C)cc21 [compound 240, N-((1S,2R)-1-(1,3-benzodioxol-5-ylmethyl)-3-(((1s,3S,4′S)-6′-(2,2-dimethylpropyl)-3-fluoro-3′,4′-dihydrospiro[cyclobutane-1,2′-pyrano[2,3-b]pyridin]-4′-yl)amino)-2-hydroxypropyl)-2-(methyloxy)acetamide] | 0.108 µM | – | 0.087 µM | – |
| CC(=O)N[C@@H](Cc1ccc(F)cc1)[C@H](O)CN[C@H]1CC2(CCC2)Oc2c1cc(CC(C)(C)C)nc2NCC(F)(F)F [compound 144] | 0.634 µM | 0.0944 µM | – | – |
| COCC(=O)N[C@@H](Cc1cccc(F)c1)[C@H](O)CN[C@H]1CC2(CC(F)(F)C2)Oc2ncc(CC(C)(F)F)cc21 [compound 280] | 0.175 µM | – | 0.0189 µM | – |
| COCC(=O)N[C@@H](Cc1ccc(F)cc1)[C@H](O)CNC1CC2(CC(F)(F)C2)Oc2ncc(CC(C)(C)C)cc21 (some centres unmarked) [compound 53] | 0.065 µM | 0.011 µM | – | – |
| COCC(=O)N[C@@H](Cc1cccc(F)c1)[C@H](O)CN[C@H]1CC2(CCC2)Oc2cnc(CC(C)(C)C)cc21 [compound 122] | 0.0231 µM | 0.00754 µM | – | – |
| CCC(=O)Nc1cnc2c(c1)[C@@H](NC[C@@H](O)[C@H](Cc1ccc(F)cc1)NC(C)=O)CC1(CCC1)O2 [compound 85] | > 10 µM | 0.89 µM | – | – |
| COCC(=O)N[C@@H](Cc1cc(F)cc(F)c1)[C@H](O)CN[C@H]1CC2(CCC2)Oc2ncc(CC(C)(C)F)cc21 [compound 286] | 0.00599 µM | – | 0.00332 µM | – |
| COCC(=O)N[C@@H](Cc1cc(Br)c2c(c1)OCO2)[C@H](O)CN[C@H]1CC2(CCC2)Oc2ncc(CC(C)(C)F)cc21 [compound 211] | 0.312 µM | – | 0.423 µM | – |
| CC(C)(C)Cc1cnc2c(c1)[C@@H](NC[C@@H](O)[C@H](Cc1cccc(F)c1)NC(=O)C(C)(Cl)Cl)CC1(CCC1)O2 [compound 106] | 0.834 µM | 0.0669 µM | – | – |
| CC(=O)NC(Cc1ccc2c(c1)OCO2)C(O)CNC1CC2(CC(C)C2)Oc2ncc(CC(C)C)cc21 [compound 132, N-((1S,2R)-1-(1,3-benzodioxol-5-ylmethyl)-2-hydroxy-3-(((1s,3R,4′S)-3-methyl-6′-(2-methylpropyl)-3′,4′-dihydrospiro[cyclobutane-1,2′-pyrano[2,3-b]pyridin]-4′-yl)amino)propyl)acetamide] | 0.066 µM | 0.0252 µM | – | – |
| CC(C)(C)Cc1cnc2c(c1)[C@@H](NC[C@@H](O)[C@H](Cc1ccc(F)c(OC(F)(F)F)c1)NC(=O)C(F)(F)F)CC1(CCC1)O2 [compound 82] | 0.523 µM | 0.00283 µM | – | – |
| CC(=O)N[C@@H](Cc1ccc(F)c(OC(F)(F)F)c1)[C@H](O)CN[C@H]1CC2(CCC2)Oc2ncc(CC(C)(C)F)cc21 [compound 77] | 0.016 µM | 0.00488 µM | – | – |
| CC(C)(C)Cc1cnc2c(c1)[C@@H](NC[C@@H](O)[C@H](Cc1ccc(F)cc1)NC(=O)C(F)C(F)(F)F)CC1(CCC1)O2 (some centres unmarked) [compound 158] | 0.241 µM | 0.0504 µM | – | – |
| (2R)—N-((1S,2R)-1-((4-fluorophenyl)methyl)-2-hydroxy-3-(((4′S)-6′-(3,3,3-trifluoropropyl)-3′,4′-dihydrospiro[cyclobutane-1,2′-pyrano[2,3-b]pyridin]-4′-yl)amino)propyl)-2-(methyloxy)propanamide ′(2S)—N-((1S,2R)-1-((4-fluorophenyl)methyl)-2-hydroxy-3-(((4′S)-6′-(3,3,3-trifluoropropyl)-3′,4′-dihydrospiro[cyclobutane-1,2′-pyrano[2,3-b]pyridin]-4′-yl)amino)propyl)-2-(methyloxy)propanamide [compound 192] | – | – | 1.02 µM | IC50 [1, 6]: 2.03 µM |
| CC(=O)NC(Cc1ccc(F)cc1)C(O)CNC1CC2(CCC2)Oc2ncc(CC(C)C(F)F)cc21 [compound 198, N-((1S,2R)-3-(((4′S)-6′-((2S)-3,3-difluoro-2-methylpropyl)-3′4′-dihydrospiro[cyclobutane-1,2′-pyrano[2,3-b]pyridin]-4′-yl)amino)-1-((4-fluorophenyl)methyl)-2-hydroxypropyl)acetamide] | 0.0321 µM | – | 0.029 µM | – |
| COCC(=O)N[C@@H](Cc1cccc(C#N)c1)[C@H](O)CN[C@H]1CC2(CCC2)Oc2ncc(CC(F)(F)F)cc21 [compound 347] | – | – | – | IC50 [1, 7]: 0.0192 µM; IC50 [2, 8]: 0.0104 µM |
| COCC(=O)N[C@@H](Cc1ccc(F)cc1)[C@H](O)CN[C@H]1CC2(CCC2)Oc2ncc(CC(C)(C)C(F)(F)F)cc21 [compound 76] | 0.0108 µM | 0.00368 µM | – | – |
| CO[C@H](C)C(=O)N[C@@H](Cc1cccc(F)c1)[C@H](O)CN[C@H]1CC2(CCC2)Oc2cnc(CC(C)(C)F)cc21 [compound 253] | 0.0744 µM | – | 0.0362 µM | – |
| COCC(=O)N[C@@H](Cc1cc(F)cc(F)c1)[C@H](O)CN[C@H]1CC2(CCC2)Oc2ncc(CC(F)(F)F)cc21 [compound 348] | – | – | – | IC50 [1, 7]: 0.0182 µM; IC50 [2, 8]: 0.00688 µM |
| COCC(=O)N[C@@H](Cc1cccc(F)c1)[C@H](O)CN[C@H]1CC2(CCC2)Oc2c1cc(CC(C)(C)C)nc2NCC(F)(F)F [compound 143] | 0.314 µM | 0.0195 µM | – | – |

Source: US8163909B2, “Substituted hydroxyethyl amine compounds as beta-secretase modulators and methods of use” (Amgen Inc., priority 2007, dated 2012)
